In paper PMC3280214, “Structure Based Discovery of Small Molecules to Regulate the Activity of Human Insulin Degrading Enzyme” (PLoS ONE, 2012):

How the values were obtained:
IDE = target: T1, IDE (Homo sapiens, UniProt P14735); experiment: FAβB (amyloid-β) degradation assay; format: biochemical; conditions: 20 µM compound
T1 construct: made in house; host or cells: E. coli BL21
T1 sequence (P14735 1-1019): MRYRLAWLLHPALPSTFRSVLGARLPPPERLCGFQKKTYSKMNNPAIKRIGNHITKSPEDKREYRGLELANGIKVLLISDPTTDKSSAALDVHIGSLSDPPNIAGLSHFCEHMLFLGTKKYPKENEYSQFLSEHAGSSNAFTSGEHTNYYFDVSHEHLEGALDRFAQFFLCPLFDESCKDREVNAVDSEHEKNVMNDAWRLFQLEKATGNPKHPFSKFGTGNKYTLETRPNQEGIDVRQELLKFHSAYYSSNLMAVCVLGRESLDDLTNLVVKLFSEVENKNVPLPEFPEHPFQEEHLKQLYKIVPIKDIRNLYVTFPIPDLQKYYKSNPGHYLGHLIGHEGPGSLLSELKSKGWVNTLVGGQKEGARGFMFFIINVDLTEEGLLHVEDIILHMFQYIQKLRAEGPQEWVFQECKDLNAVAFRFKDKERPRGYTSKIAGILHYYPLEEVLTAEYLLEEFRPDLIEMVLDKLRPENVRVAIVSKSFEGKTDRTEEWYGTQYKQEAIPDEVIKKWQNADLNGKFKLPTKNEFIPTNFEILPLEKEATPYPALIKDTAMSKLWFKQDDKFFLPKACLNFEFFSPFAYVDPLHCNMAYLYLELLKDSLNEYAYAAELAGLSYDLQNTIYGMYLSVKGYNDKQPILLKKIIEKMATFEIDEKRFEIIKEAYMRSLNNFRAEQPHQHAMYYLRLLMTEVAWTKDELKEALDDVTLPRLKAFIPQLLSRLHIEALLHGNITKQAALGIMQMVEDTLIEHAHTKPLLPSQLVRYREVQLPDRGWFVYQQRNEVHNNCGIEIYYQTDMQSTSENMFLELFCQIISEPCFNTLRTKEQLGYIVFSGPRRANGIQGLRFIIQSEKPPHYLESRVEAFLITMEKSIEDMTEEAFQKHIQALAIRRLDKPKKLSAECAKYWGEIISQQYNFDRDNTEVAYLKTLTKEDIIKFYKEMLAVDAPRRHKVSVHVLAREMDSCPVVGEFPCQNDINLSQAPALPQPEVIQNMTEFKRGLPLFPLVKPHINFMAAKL
Procedure: The 10 compounds given in Table 1 were subjected to further characterization and their effect was measured on the proteolytic activity of IDE using different substrates. Initially, activity assays were carried out at fixed 20 µM concentrations for all molecules to identify the effect of those compounds on IDE activity. IDE activity was quantified by monitoring the change in fluorescence for the proteolysis of fluorogenic-substrate V, FITC- insulin-bound antibody, and FAβB by recombinant human IDE purified from E.coli BL21 [6], [18], [19]. […] Also, D6 increased the amyloid-β degradation by 20% (Fig. S1C). Further, D10 enhanced IDE-mediated FITC-insulin-mAb and substrate V degradation by 290% and 65%, respectively (Fig. S1A, B). Next, an EC50 value of each molecule that enhanced IDE activity was determined with a dose response assay, where specific activity of IDE was measured with different concentrations of the lead compounds and then the plot was fit to Sigmoidal Hill-4 parameter equation. […] EC50 value for D3 on insulin degradation was approximately measured as 20 µM (Fig. S2C), whereas EC50 value for D6 on amyloid-β degradation was 2 µM (Fig. S2D). […] Among all these four compounds, D10 seems to be the potent activator of IDE, when proteolysis of insulin is considered.
This assay was performed as follows: 10 µl of 50 nM of FAβB was dissolved in a buffer which consisted of 50 mM HEPES, 100 mM NaCl, % 0,05 (v/v) bovine serum albumin, at a pH of 7.4. The reaction was initiated in a total volume of 100 µl with 20 µM drugs by adding 20 µl of 0.02 mg/ml of IDE for 2.5 h at 37°C. The reaction was stopped by adding 2 µl of 100 mM of protease inhibitor (1, 10-phenanthroline). Uncleaved FAβB was precipitated with Neutravidin- coated agarose beads by gentle rocking for 30 min. and centrifugation for 10 min at 14000 g. The supernatant was transferred to the black 96 well plates and increase in fluorescence (488 excitation, 525 emission) was measured with a multi-label plate reader.
The effect of the lead compounds on the initial rate of proteolysis of IDE was determined by measurement in fluorescence with time both in the presence and absence of the lead compounds. The kinetic data for IDE-mediated insulin, substrate V and amyloid-β degradation were plotted and fitted using SigmaPlot software (Sigmoidal, Hill, 4 parameter). For the initial rate calculations, kinetic data were fitted using SigmaPlot software (Hyperbola; Single Rectangular I, 3 Parameter).

HeLa cells = experiment: MTT assay for cell viability; format: cell-based, human; conditions: 24 h; for cytotoxicity at high concentrations: 1 to 100 µM
Description: We characterized the activity of novel compounds in a cellular assay to establish whether there were any cytotoxic effects. We used an established MTT (3-(4,5-dimethylthiazolyl-2)-2, 5-diphenyltetrazolium bromide or thiazolyl blue) method using HELA cells to determine whether the small molecule affects cell viability. In this method, a purple formazan dye forms as a result of the cleavage of the yellow tetrazolium MTT within metabolically active cells. The resulting precipitate of the intracellular formazan can be dissolved in a detergent solution and quantified spectrophotometrically at 595 nm. We measured the cytotoxicity by incubating HELA cells in the presence of novel compounds at concentrations ranging from 1 to 100 µM for 24 h. Cell viability was measured using the MTT method after […] culture. The extent of cell death was expressed relative to a control containing DMSO. […] Therefore, as a next step we tested the effects of lead compounds on insulin catabolism using HeLa cells.
The cytotoxicity assay was performed using human cervical cancer HeLa cells. Cells were cultured at 37°C under a humidified atmosphere of 5% CO2 in medium supplemented with 10% fetal bovine serum and dispersed in replicate 96-well plates with 2.5×10^4 cells/well. Compounds were then added. After 24 hours exposure to the chemical compounds, the cell viability was determined by 3-[4,5-dimethylthiazol-2-yl]-2,5-diphenpyltetrazolium bromide (MTT) assay. The optical density (OD) of the wells was determined using ELISA plate reader at a test wavelength of 600 nm and a reference wavelength of 630 nm. Each measurement was carried out in triplicate.

Structure (SMILES) | effect on proteolysis activity of IDE for amyloid-β (IDE) | cytotoxicity at high concentrations (HeLa cells) | cell viability (HeLa cells; 7.5 µM) | cell viability (HeLa cells; 100 µM) [%]
COc1ccc(C2C(C(=O)Nc3ccccc3)=C(C)N=c3sc(=Cc4cn(C)nc4C)c(=O)n32)cc1 (stereo not shown) [Compound D3] | did not have any effect | did not demonstrate any toxicity |  | 
Nc1c(C(=O)Nc2ccccc2F)c2ccccn2c1C(=O)c1ccc2c(c1)CCCC2 [Compound D4] | did not have any effect |  | approximately 85% | 60
Cc1nn(-c2ccccc2)c2nc(-c3cccc([N+](=O)[O-])c3)n3c4ccccc4nc3c2c1=O [Compound D10] | did not have any effect | did not demonstrate any toxicity |  | 
